Like-named read-outs stand apart in the source and are kept apart here.
System: M. mycetomatis genome strain MM55
Experiment: CLSI M38-A2 based in vitro susceptibility screening (XTT or resazurin), growth at fixed concentration
Format: cell-based, Madurella mycetomatis
Conditions: Madurella mycetomatis; for Percent fungal survival at 100 µM: read-out: Percentage survival at 100um, 100 uM A (second replicate column)
[1] = mean of replicates, read-out: Percentage survival at 25um, 25 uM mean
[2] = replicate A, read-out: Percentage survival at 25um, 25 um A
[3] = replicate B, read-out: Percentage survival at 25um, 25 uM B
[4] = replicate C, read-out: Percentage survival at 25um, 25 uM C
[5] = mean of replicates, read-out: Percentage survival at 100um, 100 uM mean
[6] = replicate 1, read-out: Percentage survival at 100um, 100 uM A
[7] = replicate 2, read-out: Percentage survival at 100um, 100 uM A
[8] = replicate 3, read-out: Percentage survival at 100um, 100 uM A
[9] = mean of three replicates, read-out: Percentage survival at 25um, 25 uM mean
[10] = mean of three replicates, read-out: Percentage survival at 100um, 100 uM mean
[11] = replicate 1, read-out: Percentage survival at 100um, 100 uM A (first replicate column)
[12] = replicate 3, read-out: Percentage survival at 100um, 100 uM A (third replicate column)
[13] = mean, read-out: Percentage survival at 25um, 25 uM mean
[14] = mean, read-out: Percentage survival at 100um, 100 uM mean
[15] = replicate (first column), read-out: Percentage survival at 100um, 100 uM A
[16] = replicate (second column), read-out: Percentage survival at 100um, 100 uM A
[17] = replicate (third column), read-out: Percentage survival at 100um, 100 uM A
[18] = mean of replicates, MM55, read-out: Percentage survival at 25um, 25 uM mean
[19] = replicate A, MM55, read-out: Percentage survival at 25um, 25 um A
[20] = replicate B, MM55, read-out: Percentage survival at 25um, 25 uM B
[21] = replicate C, MM55, read-out: Percentage survival at 25um, 25 uM C
[22] = mean of replicates, MM55, read-out: Percentage survival at 100um, 100 uM mean
[23] = replicate 1, MM55, read-out: Percentage survival at 100um, 100 uM A
[24] = replicate 2, MM55, read-out: Percentage survival at 100um, 100 uM A
[25] = replicate 3, MM55, read-out: Percentage survival at 100um, 100 uM A

| SMILES | activity at 25 µM [1] [%] | activity at 25 µM [2] [%] | activity at 25 µM [3] [%] | activity at 25 µM [4] [%] | activity at 100 µM [5] [%] | activity at 100 µM [6] [%] | activity at 100 µM [7] [%] | activity at 100 µM [8] [%] | other results |
| --- | --- | --- | --- | --- | --- | --- | --- | --- | --- |
| O=C(O)CCNC(=O)c1ccccc1 [MMV002224] | 93.9 | 90.2 | 96.2 | 95.4 | 89.7 | 96 | 83.6 | 89.5 |  |
| Cc1onc(-c2ccccc2)c1-c1ccc(S(N)(=O)=O)cc1 [MMV002260] |  | 85.1 | 77.3 | 81.8 |  |  |  |  | activity at 25 µM [9]: 81.4%; activity at 100 µM [10]: 99.5%; activity at 100 µM [11]: 101%; Percent fungal survival at 100 µM (replicate 2): 120%; activity at 100 µM [12]: 76.9% |
| Cc1ncc([N+](=O)[O-])n1CC(C)O (stereo not shown) [MMV002287] |  | 140 | 90.9 | 103 |  |  |  |  | activity at 25 µM [9]: 111%; activity at 100 µM [10]: 100%; activity at 100 µM [11]: 89.4%; Percent fungal survival at 100 µM (replicate 2): 122%; activity at 100 µM [12]: 90.2% |
| OC(Cn1cncn1)(Cn1cncn1)c1ccc(F)cc1F [MMV002337] |  | 137 | 52.7 | 150 |  |  |  |  | activity at 25 µM [13]: 113%; activity at 100 µM [14]: 1.38%; activity at 100 µM [15]: -3.44%; activity at 100 µM [16]: 4.59%; activity at 100 µM [17]: 3.01% |
| CCn1cc(C(=O)O)c(=O)c2cc(F)c(N3CCNC(C)C3)c(F)c21 (stereo not shown) [MMV002350] |  |  |  |  |  |  |  |  | activity at 25 µM [18]: 91.3%; activity at 25 µM [19]: 97.9%; activity at 25 µM [20]: 93.8%; activity at 25 µM [21]: 82.3%; activity at 100 µM [22]: 89%; activity at 100 µM [23]: 92.8%; activity at 100 µM [24]: 92.2%; activity at 100 µM [25]: 82.2% |
| C[C@@H]1O[C@@H]1P(=O)(O)O [MMV002354] | 88.5 | 88.5 | 86.5 | 90.5 | 88.2 | 81.5 | 93.4 | 89.6 |  |
| NC[C@H]1O[C@H](O[C@H]2[C@H](O)[C@@H](O[C@H]3O[C@H](CO)[C@@H](O)[C@H](N)[C@H]3O)[C@H](N)C[C@@H]2N)[C@H](N)C[C@@H]1O [MMV002459] | 86.6 | 96.5 | 69 | 94.3 | 63.3 | 89.3 | 40 | 60.6 |  |
| CSc1ccc2c(c1)C(N1CCN(C)CC1)Cc1ccccc1S2 (stereo not shown) [MMV002505] |  |  |  |  |  |  |  |  | activity at 25 µM [18]: 38.4%; activity at 25 µM [19]: 7.34%; activity at 25 µM [20]: 101%; activity at 25 µM [21]: 6.61%; activity at 100 µM [22]: 3.79%; activity at 100 µM [23]: 3.82%; activity at 100 µM [24]: -0.0923%; activity at 100 µM [25]: 7.64% |
| CC[C@@H]1C(=O)OC[C@@H]1Cc1cncn1C [MMV002516] | 82.7 | 90.3 | 90.6 | 67.2 | 73.8 | 82.4 | 85 | 53.9 |  |
| CO/N=C(\C(=O)N[C@@H]1C(=O)N2C(C(=O)OCOC(=O)C(C)(C)C)=C(/C=C\c3scnc3C)CS[C@H]12)c1csc(N)n1 [MMV002560] | 117 | 84.9 | 78.8 | 186 | 77.5 | 72.7 | 83.7 | 76 |  |
| COC(=O)Nc1nc2ccc([S+]([O-])c3ccccc3)cc2[nH]1 (stereo not shown) [MMV002565, Oxfendazole, reference compound] |  | 91.3 | 87.4 | 83.6 |  |  |  |  | activity at 25 µM [13]: 87.4%; activity at 100 µM [14]: 76.1%; activity at 100 µM [15]: 83.9%; activity at 100 µM [16]: 71.1%; activity at 100 µM [17]: 73.2% |

From paper PMC8815882, “Screening the pandemic response box identified benzimidazole carbamates, Olorofim and ravuconazole as promising drug candidates for the treatment of eumycetoma” (PLoS Neglected Tropical Diseases, 2022)
